Test results reported in publication PMC7782499, “Progerinin, an optimized progerin-lamin A binding inhibitor, ameliorates premature senescence phenotypes of Hutchinson-Gilford progeria syndrome” (Communications Biology, 2021).
Where “and” joins values, the source holds several entries; their conditions need not be identical. Identical values can stand only once.

Test system: Lmna G609G/+ mouse
Experiment: Body weight of Lmna G609G/+ mice
Format: in vivo
Conditions: oral administration, relative body weight; for Lmna G609G/+ body weight, Ave: group average; for Lmna G609G/+ body weight: individual mouse
Description: Fig. 3 In vivo favorable effect of SLC-D011. A Gross morphology of Lmna^G609G/G609G mice (10 weeks old) was ameliorated after injection with SLC-D011. At the same age, the experimental group (D011) of mice were larger than vehicle-injected control (Con) subjects regardless of gender. B, C SLC-D011 increases body weight B and extends life span C of Lmna^G609G/G609G progeria model mouse (Con: n = 8; SLC-D011: n = 8). Compared with 14.8 weeks of average (ave) life span with maximum (max) life span of 15.5 weeks, 20 mg/kg of intraperitoneal (i.p) injection (twice a week) of SLC-D011 could extend the life span upto 19 weeks (max = 21 weeks). Lmna^G609G/G609G mice were injected with SLC-D011 from age of 5-week old, *p < 0.05. D Gross morphology of SLC-D011 injected Lmna^G609G/+ mouse. […] E SLC-D011 increases body weights of Lmna^G609G/+ mice (Con: n = 10; SLC-D011: n = 11), *p < 0.05. F Favorable effect of SLC-D011 on life span of Lmna^G609G/+ mice. Compared with vehicle-injected control group (ave = 46.7 weeks and max = 48 weeks), SLC-D011 treatment obviously extended the average life span to 63 weeks (max = 64 weeks). The injection was started from 32 weeks old, **p < 0.001. “Con” means vehicle (a solvent composed of DMSO and PBS)-injected mouse group. TEXT PRINTED IN THE PICTURE: (C) D011: Kaplan-Meier survival curve in Lmna^G609G/G609G: Ave=19; Kaplan-Meier survival curve in Lmna^G609G/G609G: Max=21 | (F) D011: Kaplan-Meier survival curve in Lmna^G609G/+: Ave=63; Kaplan-Meier survival curve in Lmna^G609G/+: Max=64 DOUBTS OF THE COPYIST ABOUT THIS PICTURE: Panels C and F: the Ave/Max labels are not printed with a group name. They are assigned to D011 (solid curve) or Con (dashed curve) only by their position beside the curves. / Panel C Ave=14.8, Max=15.5 and panel F Ave=46.7, Max=48 stand beside the dashed Con curve. They are left out because Con is the control group, not a substance. / No unit is printed with the Ave/Max values. Only the axis reads Age (weeks).
Animal experiments were performed in a facility certified by the Association for Assessment and Accreditation of Laboratory Animal Care in compliance with animal policies approved by Pusan National University. The mouse work was performed under the study protocol PNU-2019-2181, as approved by the Institutional Animal Care and Use Committee. Lmna^G609G/609G mice were generated by timed mating of heterozygous Lmna^G609G/+ provided by Carlos López-Otín (Universidad de Oviedo, Asturias, Oviedo, Spain). SLC-D011 was mixed with dimethyl sulfoxide (DMSO) and phosphate-buffered saline (PBS). It was then intraperitoneally injected into mice (20 mg/kg twice per week from 5-week-old). SLC-D011 and lonafarnib were orally administrated to mice daily at a concentration of 10 mg/ml in monoolein-based solution. Lonafarnib was generously provided by Merck, the Progeria Research Foundation (PRF) and the PRF Lonafarnib Pre-clinical Drug Supply Program. Control mice were treated with monoolein-based solution alone in the same way. Lmna^G609G/609G mice were treated with clear chemical solution throughout the life span, starting from 5 weeks of age. Lmna^G609G/+ mice were treated via intraperitoneal and oral administrations, starting from 32 weeks of age.
Fig. S10. Or al administration of SLC-D011 suppresses premature aging features of LmnaG609G/+ mi c e . A.
Gross morphology of SLC-D011 treated Lmna G609G/+ mice at 36 weeks old. B. Oral administration of SLC-
D011 increases body weight s of LmnaG609G/+ mi c e (untreated: n=11; SLC-D011: n=12), * p<0.05. C. […]
intensity of H3K9me3 levels in lung, liver, and kidney tissues of age-matched Lmn a +/+ mouse, untreated
LamnG609G/+ mouse and two progerinin- treated LmnaG609G/+ mice (n = 2 independent experiments; one
Student’s t -test), **p < 0.001,*p< 0.05, N.S: not significant .AU, arbitrary units.
Fig. S12. […] A. SLC-D011, compar ed to lonafarnib, reduces […]

NC(=O)N1CCC(CC(=O)N2CCC([C@H]3c4ncc(Br)cc4CCc4cc(Cl)cc(Br)c43)CC2)CC1 [lonafarnib, reference compound]
Lmna G609G/+ body weight, Ave (week 36): 1
Lmna G609G/+ body weight (week 36): 1
Lmna G609G/+ body weight, Ave (week 38): 0.9406
Lmna G609G/+ body weight (week 38): 0.9091 and 0.9 and 0.96 and 0.95 and 0.913 and 0.9565
Lmna G609G/+ body weight, Ave (week 40): 0.9202
Lmna G609G/+ body weight (week 40): 0.8636 and 0.85 and 0.92 and 0.9 and 0.96 and 0.913 and 0.9565 and 0.95 and 0.9091
Lmna G609G/+ body weight, Ave (week 42): 0.88
Lmna G609G/+ body weight (week 42): 0.8636 and 0.8 and 0.84 and 0.85 and 0.92 and 0.913 and 0.88 and 0.9091
Lmna G609G/+ body weight, Ave (week 44): 0.8157
Lmna G609G/+ body weight (week 44): 0.7727 and 0.7 and 0.8 and 0.88 and 0.7273 and 0.8182 and 0.85
Lmna G609G/+ body weight, Ave (week 46): 0.7411
Lmna G609G/+ body weight (week 46): 0.7273 and 0.65 and 0.72 and 0.75 and 0.76 and 0.7 and 0.8182 and 0.8
Lmna G609G/+ body weight, Ave (week 48): 0.6808
Lmna G609G/+ body weight (week 48): 0.6818 and 0.6 and 0.64 and 0.75 and 0.68 and 0.7 and 0.7273 and 0.72
Lmna G609G/+ body weight, Ave (week 50): 0.6132
Lmna G609G/+ body weight (week 50): 0.5909 and 0.55 and 0.6 and 0.7 and 0.64 and 0.5 and 0.6957 and 0.65 and 0.6818
Lmna G609G/+ body weight, Ave (week 52): 0.4605
Lmna G609G/+ body weight (week 52): 0.4545 and 0 and 0.4 and 0.55 and 0.48 and 0.5217 and 0.6957 and 0.5 and 0.44
Lmna G609G/+ body weight, Ave (week 54): 0.1559
Lmna G609G/+ body weight (week 54): 0.4545 and 0 and 0.44 and 0.5217
